Measurements taken from the supplement of paper PMC10307832.

What was measured:
Assay in all cases: relative viability (nuclei count vs DMSO), 5 days (fraction); higher = more cells survive
[1] = compound: C1=CC2=C(C=C(C(=C2N=C1)O)N=NC3=CC4=C(C=C3)C=C(C=C4)S(=O)(=O)O)S(=O)(=O)O + Nc1ncn([C@H]2C[C@H](O)[C@@H](CO)O2)c(=O)n1 [Decitabine] (partner 2 µM)
Outline: (§1)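 Lung cancer cell lines in 1536-well plates were dosed by pin tool the day after seeding, either with one drug alone or with a fixed anchor-drug dose plus five library-drug doses (not always all listed) in √10 steps. After 5 days, cells were fixed and their nuclei stained in one step (final 0.05% Triton X-100, 1% formaldehyde, 1 ug/ml Hoechst), then counted on 4× images. Relative viability is the nuclei count in treated wells divided by that in vehicle wells. Values are medians of duplicate plates.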

[2] = compound: C1=CC2=C(C=C(C(=C2N=C1)O)N=NC3=CC4=C(C=C3)C=C(C=C4)S(=O)(=O)O)S(=O)(=O)O + O=C(CCCCCCC(=O)Nc1ccccc1)NO [Vorinostat] (partner 1 µM)
Outline: as §1

AT-7519 + Lapatinib = compound: O=C(NC1CCNCC1)c1n[nH]cc1NC(=O)c1c(Cl)cccc1Cl [AT-7519] + CS(=O)(=O)CCNCc1ccc(-c2ccc3ncnc(Nc4ccc(OCc5cccc(F)c5)c(Cl)c4)c3c2)o1 [Lapatinib] (partner 2 µM)
Outline: as §1

AT-7519 + Alpelisib = compound: O=C(NC1CCNCC1)c1n[nH]cc1NC(=O)c1c(Cl)cccc1Cl [AT-7519] + Cc1nc(NC(=O)N2CCC[C@H]2C(N)=O)sc1-c1ccnc(C(C)(C)C(F)(F)F)c1 [Alpelisib] (partner 2 µM)
Outline: as §1

## NCI-H1915
[1]; first compound 0.08 µM
  relative viability: 0.25
[1]; first compound 0.253 µM
  relative viability: 0.25
[1]; first compound 0.8 µM
  relative viability: 0.268
[1]; first compound 2.53 µM
  relative viability: 0.263
[1]; first compound 8 µM
  relative viability: 0.274
[2]; first compound 0.08 µM
  relative viability: 0.539
[2]; first compound 0.253 µM
  relative viability: 0.547
[2]; first compound 0.8 µM
  relative viability: 0.518
[2]; first compound 2.53 µM
  relative viability: 0.513
[2]; first compound 8 µM
  relative viability: 0.527
AT-7519 + Lapatinib; first compound 0.01 µM
  relative viability: 1.02
AT-7519 + Lapatinib; first compound 0.03162 µM
  relative viability: 0.987
AT-7519 + Lapatinib; first compound 0.3162 µM
  relative viability: 0.863
AT-7519 + Lapatinib; first compound 1 µM
  relative viability: 0.8
AT-7519 + Alpelisib; first compound 0.01 µM
  relative viability: 1.06
AT-7519 + Alpelisib; first compound 0.03162 µM
  relative viability: 1
AT-7519 + Alpelisib; first compound 0.3162 µM
  relative viability: 1.04
AT-7519 + Alpelisib; first compound 1 µM
  relative viability: 0.732

## NCI-H1944
[1]; first compound 0.08 µM
  relative viability: 0.448
[1]; first compound 0.253 µM
  relative viability: 0.437
[1]; first compound 0.8 µM
  relative viability: 0.446
[1]; first compound 2.53 µM
  relative viability: 0.376
[1]; first compound 8 µM
  relative viability: 0.38
[2]; first compound 0.08 µM
  relative viability: 0.52
[2]; first compound 0.253 µM
  relative viability: 0.538
[2]; first compound 0.8 µM
  relative viability: 0.525
[2]; first compound 2.53 µM
  relative viability: 0.583
[2]; first compound 8 µM
  relative viability: 0.477
AT-7519 + Lapatinib; first compound 0.01 µM
  relative viability: 0.807
AT-7519 + Lapatinib; first compound 0.03162 µM
  relative viability: 0.775
AT-7519 + Lapatinib; first compound 0.3162 µM
  relative viability: 0.84
AT-7519 + Lapatinib; first compound 1 µM
  relative viability: 0.864
AT-7519 + Alpelisib; first compound 0.01 µM
  relative viability: 0.86
AT-7519 + Alpelisib; first compound 0.03162 µM
  relative viability: 0.787
AT-7519 + Alpelisib; first compound 0.3162 µM
  relative viability: 0.799
AT-7519 + Alpelisib; first compound 1 µM
  relative viability: 0.74

## NCI-H1975
[1]; first compound 0.08 µM
  relative viability: 0.462
[1]; first compound 0.253 µM
  relative viability: 0.393
[1]; first compound 0.8 µM
  relative viability: 0.405
[1]; first compound 2.53 µM
  relative viability: 0.384
[1]; first compound 8 µM
  relative viability: 0.408
[2]; first compound 0.08 µM
  relative viability: 0.707
[2]; first compound 0.253 µM
  relative viability: 0.693
[2]; first compound 0.8 µM
  relative viability: 0.63
[2]; first compound 2.53 µM
  relative viability: 0.753
[2]; first compound 8 µM
  relative viability: 0.732
AT-7519 + Lapatinib; first compound 0.01 µM
  relative viability: 0.861
AT-7519 + Lapatinib; first compound 0.03162 µM
  relative viability: 0.817
AT-7519 + Lapatinib; first compound 0.3162 µM
  relative viability: 0.447
AT-7519 + Lapatinib; first compound 1 µM
  relative viability: 0.158
AT-7519 + Alpelisib; first compound 0.01 µM
  relative viability: 0.63
AT-7519 + Alpelisib; first compound 0.03162 µM
  relative viability: 0.658
AT-7519 + Alpelisib; first compound 0.3162 µM
  relative viability: 0.381
AT-7519 + Alpelisib; first compound 1 µM
  relative viability: 0.152

## NCI-H1993
[1]; first compound 0.08 µM
  relative viability: 0.573
[1]; first compound 0.253 µM
  relative viability: 0.669
[1]; first compound 0.8 µM
  relative viability: 0.624
[1]; first compound 2.53 µM
  relative viability: 0.59
[1]; first compound 8 µM
  relative viability: 0.634
[2]; first compound 0.08 µM
  relative viability: 0.844
[2]; first compound 0.253 µM
  relative viability: 0.866
[2]; first compound 0.8 µM
  relative viability: 0.798
[2]; first compound 2.53 µM
  relative viability: 0.783
[2]; first compound 8 µM
  relative viability: 0.788
AT-7519 + Lapatinib; first compound 0.01 µM
  relative viability: 0.808
AT-7519 + Lapatinib; first compound 0.03162 µM
  relative viability: 0.787
AT-7519 + Lapatinib; first compound 0.3162 µM
  relative viability: 0.632
AT-7519 + Lapatinib; first compound 1 µM
  relative viability: 0.699
AT-7519 + Alpelisib; first compound 0.01 µM
  relative viability: 0.728
AT-7519 + Alpelisib; first compound 0.03162 µM
  relative viability: 0.677
AT-7519 + Alpelisib; first compound 0.3162 µM
  relative viability: 0.676
AT-7519 + Alpelisib; first compound 1 µM
  relative viability: 0.614

## NCI-H2009
[1]; first compound 0.08 µM
  relative viability: 0.351
[1]; first compound 0.253 µM
  relative viability: 0.327
[1]; first compound 0.8 µM
  relative viability: 0.358
[1]; first compound 2.53 µM
  relative viability: 0.373
[1]; first compound 8 µM
  relative viability: 0.297
[2]; first compound 0.08 µM
  relative viability: 0.691
[2]; first compound 0.253 µM
  relative viability: 0.742
[2]; first compound 0.8 µM
  relative viability: 0.759
[2]; first compound 2.53 µM
  relative viability: 0.748
[2]; first compound 8 µM
  relative viability: 0.53
AT-7519 + Lapatinib; first compound 0.01 µM
  relative viability: 1.09
AT-7519 + Lapatinib; first compound 0.03162 µM
  relative viability: 0.825
AT-7519 + Lapatinib; first compound 0.3162 µM
  relative viability: 0.66
AT-7519 + Lapatinib; first compound 1 µM
  relative viability: 0.277
AT-7519 + Alpelisib; first compound 0.01 µM
  relative viability: 1.14
AT-7519 + Alpelisib; first compound 0.03162 µM
  relative viability: 1.12
AT-7519 + Alpelisib; first compound 0.3162 µM
  relative viability: 1.15
AT-7519 + Alpelisib; first compound 1 µM
  relative viability: 0.668

## NCI-H2023
[1]; first compound 0.08 µM
  relative viability: 0.24
[1]; first compound 0.253 µM
  relative viability: 0.243
[1]; first compound 0.8 µM
  relative viability: 0.258
[1]; first compound 2.53 µM
  relative viability: 0.24
[1]; first compound 8 µM
  relative viability: 0.19
[2]; first compound 0.08 µM
  relative viability: 0.844
[2]; first compound 0.253 µM
  relative viability: 0.581
[2]; first compound 0.8 µM
  relative viability: 0.621
[2]; first compound 2.53 µM
  relative viability: 0.641
[2]; first compound 8 µM
  relative viability: 0.633
AT-7519 + Lapatinib; first compound 0.01 µM
  relative viability: 0.911
AT-7519 + Lapatinib; first compound 0.03162 µM
  relative viability: 0.755
AT-7519 + Lapatinib; first compound 0.3162 µM
  relative viability: 0.504
AT-7519 + Lapatinib; first compound 1 µM
  relative viability: 0.177
AT-7519 + Alpelisib; first compound 0.01 µM
  relative viability: 0.648
AT-7519 + Alpelisib; first compound 0.03162 µM
  relative viability: 0.711
AT-7519 + Alpelisib; first compound 0.3162 µM
  relative viability: 0.498
AT-7519 + Alpelisib; first compound 1 µM
  relative viability: 0.3

## NCI-H2085
[1]; first compound 0.08 µM
  relative viability: 0.561
[1]; first compound 0.253 µM
  relative viability: 0.53
[1]; first compound 0.8 µM
  relative viability: 0.496
[1]; first compound 2.53 µM
  relative viability: 0.631
[1]; first compound 8 µM
  relative viability: 0.546
[2]; first compound 0.08 µM
  relative viability: 0.85
[2]; first compound 0.253 µM
  relative viability: 0.775
[2]; first compound 0.8 µM
  relative viability: 0.717
[2]; first compound 2.53 µM
  relative viability: 0.775
[2]; first compound 8 µM
  relative viability: 0.702
AT-7519 + Lapatinib; first compound 0.01 µM
  relative viability: 0.845
AT-7519 + Lapatinib; first compound 0.03162 µM
  relative viability: 0.776
AT-7519 + Lapatinib; first compound 0.3162 µM
  relative viability: 0.713
AT-7519 + Lapatinib; first compound 1 µM
  relative viability: 0.488
AT-7519 + Alpelisib; first compound 0.01 µM
  relative viability: 0.899
AT-7519 + Alpelisib; first compound 0.03162 µM
  relative viability: 0.926
AT-7519 + Alpelisib; first compound 0.3162 µM
  relative viability: 0.941
AT-7519 + Alpelisib; first compound 1 µM
  relative viability: 0.656

## NCI-H2087
[1]; first compound 0.08 µM
  relative viability: 0.244
[1]; first compound 0.253 µM
  relative viability: 0.259
[1]; first compound 0.8 µM
  relative viability: 0.222
[1]; first compound 2.53 µM
  relative viability: 0.131
[1]; first compound 8 µM
  relative viability: 0.24
[2]; first compound 0.08 µM
  relative viability: 0.69
[2]; first compound 0.253 µM
  relative viability: 0.804
[2]; first compound 0.8 µM
  relative viability: 0.795
[2]; first compound 2.53 µM
  relative viability: 0.702
[2]; first compound 8 µM
  relative viability: 0.676
AT-7519 + Lapatinib; first compound 0.01 µM
  relative viability: 1.2
AT-7519 + Lapatinib; first compound 0.03162 µM
  relative viability: 1.11
AT-7519 + Lapatinib; first compound 0.3162 µM
  relative viability: 0.998
AT-7519 + Lapatinib; first compound 1 µM
  relative viability: 0.185
AT-7519 + Alpelisib; first compound 0.01 µM
  relative viability: 1.14
AT-7519 + Alpelisib; first compound 0.03162 µM
  relative viability: 1.21
AT-7519 + Alpelisib; first compound 0.3162 µM
  relative viability: 1.01
AT-7519 + Alpelisib; first compound 1 µM
  relative viability: 0.161

## NCI-H2126
[1]; first compound 0.08 µM
  relative viability: 0.577
[1]; first compound 0.253 µM
  relative viability: 0.567
[1]; first compound 0.8 µM
  relative viability: 0.599
[1]; first compound 2.53 µM
  relative viability: 0.612
[1]; first compound 8 µM
  relative viability: 0.609
[2]; first compound 0.08 µM
  relative viability: 0.899
[2]; first compound 0.253 µM
  relative viability: 0.75
[2]; first compound 0.8 µM
  relative viability: 0.737
[2]; first compound 2.53 µM
  relative viability: 0.809
[2]; first compound 8 µM
  relative viability: 0.851
AT-7519 + Lapatinib; first compound 0.01 µM
  relative viability: 0.804
AT-7519 + Lapatinib; first compound 0.03162 µM
  relative viability: 0.752
AT-7519 + Lapatinib; first compound 0.3162 µM
  relative viability: 0.683
AT-7519 + Lapatinib; first compound 1 µM
  relative viability: 0.857
AT-7519 + Alpelisib; first compound 0.01 µM
  relative viability: 0.766
AT-7519 + Alpelisib; first compound 0.03162 µM
  relative viability: 0.798
AT-7519 + Alpelisib; first compound 0.3162 µM
  relative viability: 0.749
AT-7519 + Alpelisib; first compound 1 µM
  relative viability: 0.695
